Assays:
Assay in all cases: relative viability (nuclei count vs DMSO), 5 days (fraction); higher = more cells survive
[1] = system: A-427
How it was run: (§1)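 Dosing by pin tool came one day after lung cancer cell lines were seeded in 1536-well plates, using either one drug or a fixed anchor-drug dose plus five library-drug doses (not always all listed) in √10 steps. After 5 days, nuclei were counted on 4× images. Relative viability is treated-well nuclei count divided by vehicle-well nuclei count, and values are medians of duplicate plates.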

[2] = system: COR-L 105
How it was run: as §1

[3] = system: ChaGo-K-1
How it was run: as §1

[4] = system: EMC-BAC-2
How it was run: as §1

[5] = system: EPLC-272H
How it was run: as §1

[6] = system: HARA
How it was run: as §1

[7] = system: HCC-44
How it was run: as §1

[8] = system: LU99A
How it was run: as §1

[9] = system: NCI-H1650
How it was run: as §1

[10] = system: NCI-H1734
How it was run: as §1

[11] = system: NCI-H1755
How it was run: as §1

[12] = system: NCI-H1792
How it was run: as §1

[13] = system: NCI-H1993
How it was run: as §1

[14] = system: NCI-H2405
How it was run: as §1

[15] = system: NCI-H460
How it was run: as §1

[16] = system: NCI-H596
How it was run: as §1

[17] = system: NCI-H647
How it was run: as §1

[18] = system: RERF-LC-KJ
How it was run: as §1

Cc1cn(-c2cc(NC(=O)c3ccc(C)c(Nc4nccc(-c5cccnc5)n4)c3)cc(C(F)(F)F)c2)cn1 [Nilotinib] + CC(C)C[C@H](NC(=O)[C@H](Cc1ccccc1)NC(=O)c1cnccn1)B(O)O [Bortezomib] (partner 0.002 µM)
relative viability ([1]; first compound 0.001 µM): 0.928 | relative viability ([1]; first compound 0.01 µM): 0.95 | relative viability ([1]; first compound 0.03162 µM): 1.02 | relative viability ([1]; first compound 0.1 µM): 0.536 | relative viability ([2]; first compound 0.001 µM): 0.903 | relative viability ([2]; first compound 0.01 µM): 0.812 | relative viability ([2]; first compound 0.03162 µM): 0.601 | relative viability ([2]; first compound 0.1 µM): 0.333 | relative viability ([3]; first compound 0.001 µM): 1.44 | relative viability ([3]; first compound 0.003162 µM): 1.05 | relative viability ([3]; first compound 0.01 µM): 1.14 | relative viability ([3]; first compound 0.03162 µM): 0.639 | relative viability ([3]; first compound 0.1 µM): 0.898 | relative viability ([4]; first compound 0.001 µM): 1.03 | relative viability ([4]; first compound 0.003162 µM): 1.08 | relative viability ([4]; first compound 0.01 µM): 1.09 | relative viability ([4]; first compound 0.03162 µM): 0.922 | relative viability ([4]; first compound 0.1 µM): 1.05 | relative viability ([5]; first compound 0.001 µM): 1.06 | relative viability ([5]; first compound 0.003162 µM): 1.21 | relative viability ([5]; first compound 0.01 µM): 0.863 | relative viability ([5]; first compound 0.03162 µM): 0.72 | relative viability ([5]; first compound 0.1 µM): 0.429 | relative viability ([6]; first compound 0.001 µM): 1.17 | relative viability ([6]; first compound 0.003162 µM): 1.25 | relative viability ([6]; first compound 0.01 µM): 1.11 | relative viability ([6]; first compound 0.03162 µM): 1.15 | relative viability ([6]; first compound 0.1 µM): 0.859 | relative viability ([7]; first compound 0.001 µM): 0.885 | relative viability ([7]; first compound 0.003162 µM): 0.968 | relative viability ([7]; first compound 0.01 µM): 0.853 | relative viability ([7]; first compound 0.03162 µM): 0.871 | relative viability ([7]; first compound 0.1 µM): 0.873 | relative viability ([8]; first compound 0.001 µM): 0.891 | relative viability ([8]; first compound 0.003162 µM): 1.1 | relative viability ([8]; first compound 0.01 µM): 1.39 | relative viability ([8]; first compound 0.03162 µM): 1.19 | relative viability ([8]; first compound 0.1 µM): 0.371 | relative viability ([9]; first compound 0.001 µM): 0.2 | relative viability ([9]; first compound 0.003162 µM): 0.195 | relative viability ([9]; first compound 0.01 µM): 0.18 | relative viability ([9]; first compound 0.03162 µM): 0.196 | relative viability ([9]; first compound 0.1 µM): 0.197 | relative viability ([10]; first compound 0.001 µM): 0.877 | relative viability ([10]; first compound 0.003162 µM): 0.948 | relative viability ([10]; first compound 0.01 µM): 1.01 | relative viability ([10]; first compound 0.03162 µM): 0.558 | relative viability ([10]; first compound 0.1 µM): 0.6 | relative viability ([11]; first compound 0.001 µM): 1 | relative viability ([11]; first compound 0.003162 µM): 1.16 | relative viability ([11]; first compound 0.01 µM): 1.15 | relative viability ([11]; first compound 0.03162 µM): 0.81 | relative viability ([11]; first compound 0.1 µM): 0.929 | relative viability ([12]; first compound 0.001 µM): 0.94 | relative viability ([12]; first compound 0.01 µM): 1.2 | relative viability ([12]; first compound 0.1 µM): 1.23 | relative viability ([13]; first compound 0.001 µM): 1.11 | relative viability ([13]; first compound 0.003162 µM): 0.878 | relative viability ([13]; first compound 0.01 µM): 1.06 | relative viability ([13]; first compound 0.03162 µM): 0.896 | relative viability ([13]; first compound 0.1 µM): 0.953 | relative viability ([14]; first compound 0.001 µM): 0.995 | relative viability ([14]; first compound 0.01 µM): 1.07 | relative viability ([14]; first compound 0.03162 µM): 0.762 | relative viability ([14]; first compound 0.1 µM): 0.553 | relative viability ([15]; first compound 0.001 µM): 0.689 | relative viability ([15]; first compound 0.03162 µM): 0.627 | relative viability ([15]; first compound 0.1 µM): 0.866 | relative viability ([16]; first compound 0.001 µM): 1.16 | relative viability ([16]; first compound 0.003162 µM): 1.03 | relative viability ([16]; first compound 0.01 µM): 1.18 | relative viability ([16]; first compound 0.03162 µM): 1.21 | relative viability ([16]; first compound 0.1 µM): 0.96 | relative viability ([17]; first compound 0.001 µM): 0.79 | relative viability ([17]; first compound 0.003162 µM): 1.52 | relative viability ([17]; first compound 0.03162 µM): 0.57 | relative viability ([17]; first compound 0.1 µM): 0.951 | relative viability ([18]; first compound 0.001 µM): 1.12 | relative viability ([18]; first compound 0.003162 µM): 1.14 | relative viability ([18]; first compound 0.01 µM): 1.22 | relative viability ([18]; first compound 0.03162 µM): 1.05 | relative viability ([18]; first compound 0.1 µM): 1.02

— the supplement of paper PMC10307832
